{
  "source": "patent EP2319852A1",
  "about": "“Triphenylphosphine derivatives” (Universitat Autònoma De Barcelona, priority 2009, dated 2011)",
  "key": {"[1]": {"test": "Aerial oxidation of the phosphines in aqueous solution, followed by 31P{1H} NMR", "format": "physicochemical", "conditions": "for Oxidation percentage over time: distilled water, 5.10^-2 mM, open to air, vigorous stirring; for oxidize in the air: 5·10^-2 mM aqueous solution, room temperature", "description": "4. Aerial oxidation of the phosphines in aqueous solution\nSolutions in distilled water (1 mL, 5.10^-2 mM ) of the phosphines represented below were prepared with the aim of comparing their inertness against aerial oxidation. The solutions were kept opened to air under vigorous stirring for 120 h. Aliquots were taken and analyzed by ^31P{^1H} NMR in order to quantify the oxidation progress."}, "[2]": {"test": "Determination of water solubility of the sodium salts of the phosphines", "format": "physicochemical", "conditions": "saturated supernatant evaporated to dryness and weighed", "description": "3. Determination of water solubility of trifluoromethylated sulfonated phosphines of Formula (I)\nOversaturated aqueous solutions of the sodium salts of the phosphines of Formula (I) were prepared. The supernatant solution was ultracentrifugated, and then filtered through a nylon filter, a measured weight of this solution was evaporated to dryness and the solid residue was weighed."}},
  "data": [
    {"smiles": "O=S(=O)([O-])c1cccc(P(c2ccccc2)c2cccc(S(=O)(=O)[O-])c2)c1.[Na+].[Na+]", "note": "[Na2TPPDS]", "values": [
      {"measurement": "Oxidation percentage over time", "setting": "[1]; 0 h", "value": 0, "unit": "%"},
      {"measurement": "oxidize in the air", "setting": "[1]; 16 h", "value": "about 5%"},
      {"measurement": "Oxidation percentage over time", "setting": "[1]; 16 h", "value": 6, "unit": "%"},
      {"measurement": "Oxidation percentage over time", "setting": "[1]; 40 h", "value": 33, "unit": "%"},
      {"measurement": "Oxidation percentage over time", "setting": "[1]; 120 h", "value": 100, "unit": "%"}
    ]},
    {"smiles": "O=S(=O)([O-])c1cccc(P(c2ccccc2)c2ccccc2)c1.[Na+]", "note": "[NaTPPMS, triphenylphosphine monosulfonate]", "values": [
      {"measurement": "Oxidation percentage over time", "setting": "[1]; 0 h", "value": 0, "unit": "%"},
      {"measurement": "oxidize in the air", "setting": "[1]; 16 h", "value": "about 5%"},
      {"measurement": "Oxidation percentage over time", "setting": "[1]; 16 h", "value": 4, "unit": "%"},
      {"measurement": "Oxidation percentage over time", "setting": "[1]; 40 h", "value": 25, "unit": "%"},
      {"measurement": "Oxidation percentage over time", "setting": "[1]; 120 h", "value": 68, "unit": "%"}
    ]},
    {"smiles": "O=S(=O)(O)c1cccc(P(c2cccc(S(=O)(=O)O)c2)c2ccccc2C(F)(F)F)c1", "note": "[Phosphine 3]", "values": [
      {"measurement": "solubility thermodynamic", "setting": "[2]", "value": 30, "unit": "mg/mL"}
    ]},
    {"smiles": "O=S(=O)(O)c1cccc(P(c2ccc(C(F)(F)F)cc2)c2ccc(C(F)(F)F)cc2)c1", "note": "[Phosphine 4]", "values": [
      {"measurement": "solubility thermodynamic", "setting": "[2]", "value": "2 to 12", "unit": "mg/mL"}
    ]},
    {"smiles": "O=S(=O)(O)c1cccc(P(c2cc(C(F)(F)F)cc(C(F)(F)F)c2)c2cc(C(F)(F)F)cc(C(F)(F)F)c2)c1", "note": "[Phosphine 5]", "values": [
      {"measurement": "solubility thermodynamic", "setting": "[2]", "value": "2 to 12", "unit": "mg/mL"}
    ]},
    {"smiles": "O=S(=O)(O)c1cccc(P(c2ccccc2C(F)(F)F)c2ccccc2C(F)(F)F)c1", "note": "[Phosphine 6]", "values": [
      {"measurement": "solubility thermodynamic", "setting": "[2]", "value": "2 to 12", "unit": "mg/mL"}
    ]},
    {"smiles": "O=S(=O)(O)c1cccc(P(c2ccccc2)c2ccc(C(F)(F)F)cc2)c1", "note": "(centres unmarked) [Phosphine 7]", "values": [
      {"measurement": "solubility thermodynamic", "setting": "[2]", "value": 500, "unit": "mg/mL"}
    ]},
    {"smiles": "O=S(=O)(O)c1cccc(P(c2ccccc2)c2cc(C(F)(F)F)cc(C(F)(F)F)c2)c1", "note": "(centres unmarked) [Phosphine 8]", "values": [
      {"measurement": "solubility thermodynamic", "setting": "[2]", "value": "> 1000", "unit": "mg/mL"}
    ]},
    {"smiles": "O=S(=O)(O)c1cccc(P(c2ccccc2)c2ccccc2C(F)(F)F)c1", "note": "(centres unmarked) [Phosphine 9]", "values": [
      {"measurement": "solubility thermodynamic", "setting": "[2]", "value": 210, "unit": "mg/mL"}
    ]}
  ]
}
